Assay results: publication PMC7531004, “Discovery of gramicidin A analogues with altered activities by multidimensional screening of a one-bead-one-compound library” (Nature Communications, 2020)
Where a SMILES comes first, the peptide text is derived from it. [ ]: non-standard residue; d: D form. The star is where a group is joined. NHCH2CH2OH = OCCN*; For = O=C*

Experiments:
[1] = H+/Na+ transport assay of bead-derived peptides (one-point); assay type: biochemical; parameters: key: relative activity; mean of two control wells = 1.00; conditions: bead-derived peptide solution, EYPC/EYPG LUVs;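 also: relative to parent gramicidin A activity set to 1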
Outline: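 One-point screen: peptide + pyranine-loaded LUVs, 30 min RT with vortexing, 96-well. Read-out is fluorescence intensity scaled as 100 × (Ix – I0)/(Imax – I0). Imax from Triton X-100, I0 from untreated vesicles, and the mean of the two control wells is set to 1.00.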

[2] = tested on: P388 mouse leukemia cells; conditions: 92 h
Outline: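 P388 cells at 1 × 10^4 cells/mL (final) were exposed to library peptides (stocks diluted 250-fold in RPMI1640/10% FBS) for 92 h at 37 °C, 5% CO2. Viable cells were counted by WST-1/1-methoxy PMS (4 h), absorbance 415 nm, and expressed as cell viability (%).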

[3] = tested on: Streptococcus pyogenes SSI-9; assay: Antibacterial activity assay of bead-derived peptides (three concentrations); assay type: cell-based; parameters: key: +++: inhibition by the 640-fold diluted peptide solution; ++: inhibition by the 160-fold diluted solution; +: inhibition by the 40-fold diluted solution; -: no inhibition; conditions: S. pyogenes, bead-derived peptide solution, three concentrations
Outline: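 Undiluted, 4-fold and 16-fold DMSO-diluted peptide stocks; S. pyogenes SSI-9, 2 × 10^5 CFU, cation-adjusted MHB (50 mg/L Ca2+, 25 mg/L Mg2+) + 5% laked horse blood; 37 °C, 18 h; readout = cell pellet visible or not.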

SMILES	H+/Na+ transport activity normalized against the value of 1 (1.00) [1]	cell viability/% [2]	antibacterial activity [3]
CC(C)C[C@@H](NC(=O)[C@H](C)NC(=O)[C@H](NC(=O)[C@H](C)NC(=O)CNC(=O)[C@@H](NC=O)C(C)C)[C@H](C)O)C(=O)N[C@H](C(=O)N[C@H](CC(C)C)C(=O)N[C@@H](Cc1c[nH]c2ccccc12)C(=O)N[C@H](CC(C)C)C(=O)N[C@@H](Cc1c[nH]c2ccccc12)C(=O)N[C@@H](C(=O)N[C@@H](Cc1c[nH]c2ccccc12)C(=O)N[C@@H](C(=O)N[C@@H](Cc1c[nH]c2ccccc12)C(=O)NCCO)C(C)C)C(C)C)C(C)C [compound 9125] (For-VGA[dT]A[dL]V[dL]W[dL]W[dV]W[dV]W-NHCH2CH2OH)	1.04	44.2%	-
CC(C)C[C@@H](NC(=O)[C@H](C)NC(=O)CNC(=O)[C@@H](NC=O)C(C)C)C(=O)N[C@@H](C)C(=O)N[C@@H](C(=O)N[C@H](C(=O)N[C@@H](C(=O)N[C@@H](Cc1c[nH]c2ccccc12)C(=O)N[C@H](CC(C)C)C(=O)N[C@@H](Cc1c[nH]c2ccccc12)C(=O)N[C@@H](C(=O)N[C@@H](Cc1c[nH]c2ccccc12)C(=O)N[C@H](CC(C)C)C(=O)N[C@@H](Cc1c[nH]c2ccccc12)C(=O)NCCO)C(C)C)[C@H](C)O)C(C)C)C(C)C [compound 12185] (For-VGA[dL]A[dV]V[dT]W[dL]W[dV]W[dL]W-NHCH2CH2OH)	1.02	98.1%	+
CC(C)C[C@@H](NC(=O)[C@H](C)NC(=O)[C@H](NC(=O)[C@H](C)NC(=O)CNC(=O)[C@@H](NC=O)C(C)C)C(C)C)C(=O)N[C@H](C(=O)N[C@H](CC(C)C)C(=O)N[C@@H](Cc1c[nH]c2ccccc12)C(=O)N[C@@H](C(=O)N[C@@H](Cc1c[nH]c2ccccc12)C(=O)N[C@@H](C(=O)N[C@@H](Cc1c[nH]c2ccccc12)C(=O)N[C@H](CC(C)C)C(=O)N[C@@H](Cc1c[nH]c2ccccc12)C(=O)NCCO)C(C)C)[C@H](C)O)C(C)C [compound 6572] (For-VGA[dV]A[dL]V[dL]W[dT]W[dV]W[dL]W-NHCH2CH2OH)	1.09	100.0%	-
CC(C)C[C@@H](NC(=O)[C@H](C)NC(=O)CNC(=O)[C@@H](NC=O)C(C)C)C(=O)N[C@@H](C)C(=O)N[C@H](CC(C)C)C(=O)N[C@H](C(=O)N[C@H](CC(C)C)C(=O)N[C@@H](Cc1c[nH]c2ccccc12)C(=O)N[C@@H](C(=O)N[C@@H](Cc1c[nH]c2ccccc12)C(=O)N[C@H](CC(C)C)C(=O)N[C@@H](Cc1c[nH]c2ccccc12)C(=O)N[C@@H](C(=O)N[C@@H](Cc1c[nH]c2ccccc12)C(=O)NCCO)C(C)C)C(C)C)C(C)C [compound 6096] (For-VGA[dL]A[dL]V[dL]W[dV]W[dL]W[dV]W-NHCH2CH2OH)	1.16	7.3%	+
CNC(=O)C[C@@H](NC(=O)[C@H](Cc1c[nH]c2ccccc12)NC(=O)[C@@H](CC(C)C)NC(=O)[C@H](Cc1c[nH]c2ccccc12)NC(=O)[C@H](NC(=O)[C@H](Cc1c[nH]c2ccccc12)NC(=O)[C@H](NC(=O)[C@@H](NC(=O)[C@@H](CC(C)C)NC(=O)[C@H](C)NC(=O)[C@@H](CC(C)C)NC(=O)[C@H](C)NC(=O)CNC(=O)[C@@H](NC=O)C(C)C)C(C)C)C(C)C)C(C)C)C(=O)N[C@@H](Cc1c[nH]c2ccccc12)C(=O)NCCO [compound 9609] (For-VGA[dL]A[dL]V[dV]W[dV]W[dL]W[dD](NHMe)W-NHCH2CH2OH)	1.15	100.0%	-
CC(C)C[C@@H](NC(=O)[C@H](C)NC(=O)CNC(=O)[C@@H](NC=O)C(C)C)C(=O)N[C@@H](C)C(=O)N[C@H](CC(C)C)C(=O)N[C@H](C(=O)N[C@@H](C(=O)N[C@@H](Cc1c[nH]c2ccccc12)C(=O)N[C@@H](C(=O)N[C@@H](Cc1c[nH]c2ccccc12)C(=O)N[C@@H](C(=O)N[C@@H](Cc1c[nH]c2ccccc12)C(=O)N[C@H](CC(C)C)C(=O)N[C@@H](Cc1c[nH]c2ccccc12)C(=O)NCCO)C(C)C)[C@H](C)O)C(C)C)C(C)C [compound 4031] (For-VGA[dL]A[dL]V[dV]W[dT]W[dV]W[dL]W-NHCH2CH2OH)	1.05	92.4%	-
CC(C)C[C@@H](NC(=O)[C@H](Cc1c[nH]c2ccccc12)NC(=O)[C@@H](CC(C)C)NC(=O)[C@H](Cc1c[nH]c2ccccc12)NC(=O)[C@@H](CC(C)C)NC(=O)[C@H](Cc1c[nH]c2ccccc12)NC(=O)[C@H](NC(=O)[C@@H](NC(=O)[C@H](NC(=O)[C@H](C)NC(=O)[C@H](NC(=O)[C@H](C)NC(=O)CNC(=O)[C@@H](NC=O)C(C)C)C(C)C)C(C)C)C(C)C)C(C)C)C(=O)N[C@@H](Cc1c[nH]c2ccccc12)C(=O)NCCO [compound 3311] (For-VGA[dV]A[dV]V[dV]W[dL]W[dL]W[dL]W-NHCH2CH2OH)	1.14	3.3%	++
CC(C)C[C@@H](NC(=O)[C@H](C)NC(=O)CNC(=O)[C@@H](NC=O)C(C)C)C(=O)N[C@@H](C)C(=O)N[C@H](CC(C)C)C(=O)N[C@H](C(=O)N[C@@H](C(=O)N[C@@H](Cc1c[nH]c2ccccc12)C(=O)N[C@@H](C(=O)N[C@@H](Cc1c[nH]c2ccccc12)C(=O)N[C@H](CC(C)C)C(=O)N[C@@H](Cc1c[nH]c2ccccc12)C(=O)N[C@@H](C(=O)N[C@@H](Cc1c[nH]c2ccccc12)C(=O)NCCO)C(C)C)C(C)C)C(C)C)C(C)C [compound 4297] (For-VGA[dL]A[dL]V[dV]W[dV]W[dL]W[dV]W-NHCH2CH2OH)	1.29	2.3%	+
CC(C)C[C@@H](NC(=O)[C@H](C)NC(=O)CNC(=O)[C@@H](NC=O)C(C)C)C(=O)N[C@@H](C)C(=O)N[C@@H](C(=O)N[C@H](C(=O)N[C@@H](C(=O)N[C@@H](Cc1c[nH]c2ccccc12)C(=O)N[C@@H](C(=O)N[C@@H](Cc1c[nH]c2ccccc12)C(=O)N[C@H](CC(C)C)C(=O)N[C@@H](Cc1c[nH]c2ccccc12)C(=O)N[C@@H](C(=O)N[C@@H](Cc1c[nH]c2ccccc12)C(=O)NCCO)C(C)C)C(C)C)C(C)C)C(C)C)C(C)C [compound 9036] (For-VGA[dL]A[dV]V[dV]W[dV]W[dL]W[dV]W-NHCH2CH2OH)	1.18	94.7%	+
CC(C)C[C@@H](NC(=O)[C@H](C)NC(=O)[C@H](NC(=O)[C@H](C)NC(=O)CNC(=O)[C@@H](NC=O)C(C)C)C(C)C)C(=O)N[C@H](C(=O)N[C@@H](C(=O)N[C@@H](Cc1c[nH]c2ccccc12)C(=O)N[C@H](CC(C)C)C(=O)N[C@@H](Cc1c[nH]c2ccccc12)C(=O)N[C@@H](C(=O)N[C@@H](Cc1c[nH]c2ccccc12)C(=O)N[C@@H](C(=O)N[C@@H](Cc1c[nH]c2ccccc12)C(=O)NCCO)C(C)C)C(C)C)[C@H](C)O)C(C)C [compound 9487] (For-VGA[dV]A[dL]V[dT]W[dL]W[dV]W[dV]W-NHCH2CH2OH)	1.15	100.0%	-
CC(C)C[C@@H](NC(=O)[C@H](C)NC(=O)[C@H](NC(=O)[C@H](C)NC(=O)CNC(=O)[C@@H](NC=O)C(C)C)[C@H](C)O)C(=O)N[C@H](C(=O)N[C@@H](C(=O)N[C@@H](Cc1c[nH]c2ccccc12)C(=O)N[C@H](CC(C)C)C(=O)N[C@@H](Cc1c[nH]c2ccccc12)C(=O)N[C@H](CC(C)C)C(=O)N[C@@H](Cc1c[nH]c2ccccc12)C(=O)N[C@@H](C(=O)N[C@@H](Cc1c[nH]c2ccccc12)C(=O)NCCO)C(C)C)C(C)C)C(C)C [compound 5522] (For-VGA[dT]A[dL]V[dV]W[dL]W[dL]W[dV]W-NHCH2CH2OH)	1.27	100.0%	-
CC(C)C[C@@H](NC(=O)[C@H](C)NC(=O)[C@H](NC(=O)[C@H](C)NC(=O)CNC(=O)[C@@H](NC=O)C(C)C)C(C)C)C(=O)N[C@H](C(=O)N[C@H](CC(C)C)C(=O)N[C@@H](Cc1c[nH]c2ccccc12)C(=O)N[C@@H](C(=O)N[C@@H](Cc1c[nH]c2ccccc12)C(=O)N[C@H](CC(C)C)C(=O)N[C@@H](Cc1c[nH]c2ccccc12)C(=O)N[C@H](CC(C)C)C(=O)N[C@@H](Cc1c[nH]c2ccccc12)C(=O)NCCO)C(C)C)C(C)C [compound 11439] (For-VGA[dV]A[dL]V[dL]W[dV]W[dL]W[dL]W-NHCH2CH2OH)	1.18	8.1%	-
CC(C)C[C@@H](NC(=O)[C@H](C)NC(=O)CNC(=O)[C@@H](NC=O)C(C)C)C(=O)N[C@@H](C)C(=O)N[C@@H](C(=O)N[C@H](C(=O)N[C@H](CC(C)C)C(=O)N[C@@H](Cc1c[nH]c2ccccc12)C(=O)N[C@@H](C(=O)N[C@@H](Cc1c[nH]c2ccccc12)C(=O)N[C@H](CC(C)C)C(=O)N[C@@H](Cc1c[nH]c2ccccc12)C(=O)N[C@@H](C(=O)N[C@@H](Cc1c[nH]c2ccccc12)C(=O)NCCO)C(C)C)C(C)C)C(C)C)C(C)C [compound 4895] (For-VGA[dL]A[dV]V[dL]W[dV]W[dL]W[dV]W-NHCH2CH2OH)	1.16	48.2%	+
